Results on six molecules are retold here after patent US7271161B2, “Platinum complexes as antitumor agents in combination with biochemical modulation” (Board of Regents, the University of Texas System, priority 2002, dated 2007).

Read-outs that look alike come from different tables or passages of the source.

One assay deals with Human 2780CP cell line. Description: MTT cytotoxicity assay, cisplatin-resistant ovarian 2780CP cells, with or without BSO. The assay is classed as cell-based. Also noted: key to DMF vs. 2780CP Control (Without BSO) / DMF Control / DMF +BSO (MTC): DMF = IC50 without BSO / IC50 with BSO. The settings on record: for DMF vs. 2780CP +10 μM BSO: IC50 without BSO / IC50 with 10 μM BSO; for DMF vs. 2780CP +3 mM BSO (MTC): IC50 without BSO / IC50 with 3 mM BSO (MTC); for DMF vs. 2780CP Control (Without BSO): without BSO (reference). The text has this:
(§1) The ovarian A2780 and 2008 cell lines are sensitive to cisplatin, while the corresponding 2780CP and 2008/C13* cell lines were selected for resistance following in vitro exposure to cisplatin. The SKOV-3 cell line was established from a patient who was resistant to cisplatin therapy and is considered a model of cisplatin resistance. The A2780 and 2780CP cells have wild-type p53 function, while SKOV-3 is devoid of p53 function. The p53 status for the 2008 and 2008/C131 cells is presently not known.
(§2) Procedure for Cytotoxic Evaluation. All cell lines are maintained in RPMI 1640 medium supplemented with 10% fetal bovine serum, 50 μg/ml penicillin, 50 μg/ml streptomycin, 100 μg/ml neomycin and 0.3 mg/ml L-glutamine. The ovarian lines also require 2 μg/ml insulin for maximal growth. Cells are grown as monolayers at 37° C. in a humidified atmosphere of 5% CO2:95% air. Cytotoxicity is determined by a standard MTT assay. Briefly, the exponentially-growing cells are trypsinized to dislodge them before use. After diluting the tumor cells to appropriate concentrations (2,000-30,000 cells/ml), 100 μl aliquots of the cell suspensions are added to each well of a 96-well microtiter plate. The cells are allowed to attach overnight, and then exposed for 24 hr to BSO at a concentration that is equal to or less than maximally tolerated concentration (MTC). At 22 hr after addition of BSO, the platinum complex is added, and 2 hr later the cells are washed and reincubated. After another 5 days, when control cells are in an exponential phase of growth, 50 μl of an MTT solution (3 mg/ml) is added to each well. Following a 3-hr incubation, the medium is removed and replaced by 50 μl of 100% DMSO to dissolve MTT formazan crystals. Plates are agitated on a plate shaker for 5 min, and absorbances are measured at 570 nm in a multiwell scanning spectrophotometer.
(§3) IC50 values, defined as the drug concentration (μM) inhibiting cell growth by 50% compared to control wells, are determined by fitting a sigmoidal curve to the data using a computer program. Resistance factor is calculated as a ratio of the IC50 against resistant cell line to the IC50 against parent cell line. The dose modification factor (DMF) is derived from a ratio of IC50 without BSO to that with BSO.

For a further assay, the system named is Human A2780 cell line. Description: MTT cytotoxicity assay, cisplatin-sensitive ovarian A2780 cells, with or without BSO. The class given is cell-based. Also noted: key to DMF vs. A2780 Control (Without BSO): DMF = IC50 without BSO / IC50 with BSO. The settings on record: for DMF vs. A2780 +10 μM BSO (MTC): IC50 without BSO / IC50 with 10 μM BSO (MTC); for DMF vs. A2780 Control (Without BSO): without BSO (reference).
From the text: as §1, §2, §3
A general note: Tetrazolium assays rely on reduction of a dye to a coloured formazan, in cell work by metabolically active cells.

Where [1] appears, read: +10 μM BSO, read-out: IC50 (μM) vs. 2780CP +10 μM BSO.
Setting [2] is: +3 mM BSO (MTC), read-out: IC50 (μM) vs. 2780CP +3 mM BSO (MTC).
[3] abbreviates: IC50 2780CP with 10 μM BSO / IC50 A2780 without BSO.
Setting [4] is: IC50 2780CP with 3 mM BSO (MTC) / IC50 A2780 without BSO.
Where [5] appears, read: IC50 2780CP without BSO / IC50 A2780 without BSO.
The mark [6] stands for this setting: without BSO, read-out: IC50 (μM) vs. 2780CP Control (Without BSO).
Where [7] appears, read: +10 μM BSO (MTC), 24 hr BSO, read-out: IC50 (μM) vs. A2780 +10 μM BSO (MTC).
[8] abbreviates: without BSO, 2 hr platinum exposure, MTT after 5 days, read-out: IC50 (μM) vs. A2780 Control (Without BSO).

For the molecule `[NH2][Pt]([Cl])([Cl])[NH]C1CCCCC1` [Complex 6], the IC50 (commonly the concentration needed to halve the response being measured) in the assay on Human 2780CP cell line (setting [1]) worked out at 6.98 µM; in the assay on Human 2780CP cell line (setting [2]), 4.19 µM; in the assay on Human 2780CP cell line (setting [6]) it was 7.55 µM; in the assay with Human A2780 cell line (setting [7]) it was 0.5 µM; with Human A2780 cell line (setting [8]) it was 0.63 µM. Besides, the “Resistance Factor vs. 2780CP +10 μM BSO” value with Human 2780CP cell line (setting [3]) is recorded as 11.1. In addition, in the assay with Human 2780CP cell line (setting [4]), the “Resistance Factor vs. 2780CP +3 mM BSO (MTC)” value worked out at 6.65. In addition, in the assay with Human 2780CP cell line (setting [5]), the “Resistance Factor vs. 2780CP Control (Without BSO)” value is recorded as 12.0. Moreover, the “DMF vs. 2780CP +10 μM BSO” value in the assay with Human 2780CP cell line is listed as 1.08. Moreover, the “DMF vs. 2780CP +3 mM BSO (MTC)” value with Human 2780CP cell line is 1.80. Also, in the assay with Human 2780CP cell line, the “DMF vs. 2780CP Control (Without BSO)” value was found to be 1.00. The “DMF vs. A2780 +10 μM BSO (MTC)” value in the assay on Human A2780 cell line was 1.26. Further, the “DMF vs. A2780 Control (Without BSO)” value with Human A2780 cell line worked out at 1.00.

As for `[NH2][Pt]([Cl])([Cl])[NH]C1CCCCCCC1` [Complex 8], the IC50 with Human 2780CP cell line (setting [1]) worked out at 5.97 µM; with Human 2780CP cell line (setting [2]) it was 2.35 µM; in the assay on Human 2780CP cell line (setting [6]), 7.41 µM; with Human A2780 cell line (setting [7]) it was 0.61 µM; in the assay on Human A2780 cell line (setting [8]) it was 0.77 µM. Besides, in the assay on Human 2780CP cell line (setting [3]), the “Resistance Factor vs. 2780CP +10 μM BSO” value is given as 7.75. In the assay with Human 2780CP cell line (setting [4]), the “Resistance Factor vs. 2780CP +3 mM BSO (MTC)” value is 3.05. The “Resistance Factor vs. 2780CP Control (Without BSO)” value in the assay on Human 2780CP cell line (setting [5]) is listed as 9.62. Moreover, in the assay with Human 2780CP cell line, the “DMF vs. 2780CP +10 μM BSO” value is reported as 1.24. Also, the “DMF vs. 2780CP +3 mM BSO (MTC)” value in the assay on Human 2780CP cell line was 3.15. Also, the “DMF vs. 2780CP Control (Without BSO)” value in the assay on Human 2780CP cell line stood at 1.00. The “DMF vs. A2780 +10 μM BSO (MTC)” value in the assay on Human A2780 cell line is on record as 1.26. In the assay with Human A2780 cell line, the “DMF vs. A2780 Control (Without BSO)” value amounted to 1.00.

With `[NH2][Pt]([Cl])([Cl])[N]1CCC1` [Complex 9], the IC50 with Human 2780CP cell line (setting [1]) worked out at 18.7 µM; in the assay with Human 2780CP cell line (setting [2]) it was 8.2 µM; with Human 2780CP cell line (setting [6]) it was 27.2 µM; with Human A2780 cell line (setting [7]) it was 3.02 µM; in the assay on Human A2780 cell line (setting [8]), 4.27 µM. The “Resistance Factor vs. 2780CP +10 μM BSO” value in the assay on Human 2780CP cell line (setting [3]) came out at 4.38. Also, the “Resistance Factor vs. 2780CP +3 mM BSO (MTC)” value in the assay with Human 2780CP cell line (setting [4]) is listed as 1.92. Moreover, the “Resistance Factor vs. 2780CP Control (Without BSO)” value in the assay with Human 2780CP cell line (setting [5]) was 6.37. Besides, the “DMF vs. 2780CP +10 μM BSO” value in the assay on Human 2780CP cell line is 1.45. Further, the “DMF vs. 2780CP +3 mM BSO (MTC)” value in the assay with Human 2780CP cell line is reported as 3.32. The “DMF vs. 2780CP Control (Without BSO)” value in the assay with Human 2780CP cell line came to 1.00. For the same molecule, in the assay with Human A2780 cell line, the “DMF vs. A2780 +10 μM BSO (MTC)” value is 1.41. Besides, the “DMF vs. A2780 Control (Without BSO)” value in the assay on Human A2780 cell line is 1.00.

Consider `[NH2][Pt]([Cl])([Cl])[N]1CCCC1` [Complex 10], for which the IC50 with Human 2780CP cell line (setting [1]) was found to be 28.2 µM; with Human 2780CP cell line (setting [2]), 17.2 µM; with Human 2780CP cell line (setting [6]) it was 37.2 µM; with Human A2780 cell line (setting [7]), 2.9 µM; with Human A2780 cell line (setting [8]) it was 4.08 µM. In addition, in the assay on Human 2780CP cell line (setting [3]), the “Resistance Factor vs. 2780CP +10 μM BSO” value is 6.91. Further, in the assay with Human 2780CP cell line (setting [4]), the “Resistance Factor vs. 2780CP +3 mM BSO (MTC)” value came to 4.22. The “Resistance Factor vs. 2780CP Control (Without BSO)” value in the assay with Human 2780CP cell line (setting [5]) turned out to be 9.12. The “DMF vs. 2780CP +10 μM BSO” value in the assay with Human 2780CP cell line worked out at 1.32. Further, the “DMF vs. 2780CP +3 mM BSO (MTC)” value in the assay on Human 2780CP cell line came to 2.16. Further, the “DMF vs. 2780CP Control (Without BSO)” value with Human 2780CP cell line is recorded as 1.00. Besides, in the assay with Human A2780 cell line, the “DMF vs. A2780 +10 μM BSO (MTC)” value is on record as 1.41. In addition, in the assay with Human A2780 cell line, the “DMF vs. A2780 Control (Without BSO)” value is listed as 1.00.

Regarding `N[C@@H]1CCCC[C@H]1N.[Cl][Pt+2]([Cl])([Cl])[Cl]` [Complex 13, Tetraplatin, reference compound], in the assay with Human 2780CP cell line, the “Resistance Factor vs. 2780CP +10 μM BSO” value is on record as 4.12, the “Resistance Factor vs. 2780CP +3 mM BSO (MTC)” value is listed as 2.77 and the “Resistance Factor vs. 2780CP Control (Without BSO)” value is on record as 5.28.

On to `N[C@@H]1CCCC[C@H]1N.[OH][Pt+2]([OH])([Cl])[Cl]` [Complex 14], for which the half-maximal inhibitory concentration (IC50) came to 15.5 µM in the assay on Human 2780CP cell line (setting [1]); 9.54 µM in the assay with Human 2780CP cell line (setting [2]); 15.8 µM in the assay on Human 2780CP cell line (setting [6]); 1.17 µM in the assay on Human A2780 cell line (setting [7]); 1.25 µM with Human A2780 cell line (setting [8]). Moreover, the “Resistance Factor vs. 2780CP +10 μM BSO” value with Human 2780CP cell line (setting [3]) is recorded as 12.4. Besides, in the assay on Human 2780CP cell line (setting [4]), the “Resistance Factor vs. 2780CP +3 mM BSO (MTC)” value was 7.63. For the same molecule, in the assay with Human 2780CP cell line (setting [5]), the “Resistance Factor vs. 2780CP Control (Without BSO)” value was found to be 12.6. Moreover, the “DMF vs. 2780CP +10 μM BSO” value in the assay with Human 2780CP cell line stood at 1.02. Also, the “DMF vs. 2780CP +3 mM BSO (MTC)” value with Human 2780CP cell line stood at 1.66. Further, the “DMF vs. 2780CP Control (Without BSO)” value in the assay on Human 2780CP cell line is 1.00. The “DMF vs. A2780 +10 μM BSO (MTC)” value with Human A2780 cell line was 1.07. In addition, in the assay with Human A2780 cell line, the “DMF vs. A2780 Control (Without BSO)” value is 1.00.
